Reference: article PMC10144058, “New Hybrid Scaffolds Based on 5-FU/Curcumin: Synthesis, Cytotoxic, Antiproliferative and Pro-Apoptotic Effect” (Pharmaceutics, 2023)
Like-named read-outs stand apart in the source and are kept apart here.

Legend:
K562 cell line = tested on: K562 cell line; design: method as in PMID 33213229; details: cited from earlier work
HL-60 cell line = tested on: HL-60 cell line; design: method as in PMID 33213229; details: cited from earlier work
U937 cell line = tested on: U937 cell line; design: method as in PMID 33213229; details: cited from earlier work
[1] = tested on: HCEC non-malignant epithelial cells; design: method as in PMID 31097715; details: HCEC non-malignant corneal epithelial cells; cited from earlier work
HCT116 cells = tested on: HCT116 cells; design: method as in PMID 31097715; details: cited from earlier work
CHO-K1 cells = test: Cell viability, sulforhodamine B (SRB) assay, non-malignant cells; format: cell-based, Chinese Hamster; details: Cricetulus griseus
Procedure: (§1) SW480 (colon adenocarcinoma) and SW620 (derived metastatic) malignant cell lines, and the non-malignant lines HaCaT (human keratinocytes) and CHO-K1 (Chinese Hamster Ovary), were obtained from the European Collection of Authenticated Cell Cultures (ECACC, Porton Down, Salisbury, UK). The cells were maintained in Dulbecco’s Modified Eagle’s Medium (DMEM), supplemented with 10% equine serum previously inactivated at 56 °C, 1% penicillin/streptomycin, and 1% non-essential amino acids, and incubated at 37 °C in an atmosphere with 5% CO2. To carry out the experiments, the serum was diluted to 3% and additionally supplemented with […] insulin, […] transferrin, and 5 ng/mL selenium. Cells were used for experimentation when they reached 80–90% confluence, using a 1X trypsin enzymatic disintegration method. To avoid contamination by Mycoplasma spp., cell cultures were periodically analyzed by polymerase chain reaction (PCR).
(§2) Cell viability was evaluated with a sulforhodamine B (SRB) assay. This technique provides an index of protein contents in living and adherent cells, whose optical density can be related to cell concentration. Initially, 20,000 cells were seeded per well in 96-well culture plates. An initial adherence period of 24 h was performed at 37 °C, 5% CO2, and after this, the medium was replaced by another that contained the hybrid compounds in different concentrations. Then, the cells were left incubating for 24 and 48 h under the same conditions previously described. After the respective incubation times, the cells were fixed with trichloroacetic acid (50% v/v) for 1 h at 4 °C and stained with 0.4% (p/v) of SRB. Subsequently, washings with 1% acetic acid were carried out to eliminate possible nonspecific bindings, and after solubilization with 10 mM Tris-base, the absorbance was read at 492 nm in a microplate reader (Mindray MR-96A). All the experiments were carried out in triplicate.

HaCaT cells = test: as above; format: cell-based; details: Homo sapiens
Procedure: as §1, §2

SW480 cells [2] = test: Cell viability, sulforhodamine B (SRB) assay; format: cell-based; details: Homo sapiens
Procedure: as §1, §2

SW620 cells [3] = test: Cell viability, sulforhodamine B (SRB) assay; format: cell-based, human; details: Homo sapiens
Procedure: as §1, §2

SW480 cells [4] = test: Cell cycle analysis (PI, flow cytometry); format: cell-based, human; details: SW480, treated with IC50 value, 48 h
Procedure: The method used for the recognition of cell cycle phases (G0/G1, S, G2/M) was based on staining with a fluorescent dye (propidium iodide—PI), as a direct relationship between fluorescence intensity and DNA content can be established. For this method, 250,000 cells/well were initially seeded in 6-well culture plates with an adherence period of 24 h at 37 °C in a 5% CO2 atmosphere. […] After treatment, cells were obtained by mechanical disaggregation, and the cell pellet was centrifuged and washed with a versene buffer. The cell pellet was fixed with 1.8 mL of cold 70% ethanol and kept at 4 °C overnight. Subsequently, two washes with a versene buffer were performed, and the pellet was resuspended in 300 µL of PBS containing 0.25 mg/mL of RNAsa and 0.1 mg/mL of PI. After a 30 min period of dark incubation, the fluorescence of 10,000 cells was analyzed using a FACS Canto II flow cytometer. The PI signal was analyzed with excitation at 488 nm using a sapphire laser, and fluorescence was detected at 610 nm. The data analysis was performed with FlowJo 10.8.1 software.

SW480 cells [5] = test: Mitochondrial membrane potential (DiOC6/PI, flow cytometry); format: cell-based, human; details: SW480, treated with IC50, 48 h
Procedure: The fluorescent dyes PI and DIOC6 (3,3’-dihexyloxacarbocyanine iodide) were used to observe the depolarization of the mitochondrial membrane as well as possible cell membrane damage. For this method, 250,000 cells/well were initially seeded in 6-well culture plates during a 24 h adherence period at 37 °C in a 5% CO2 atmosphere. […] After treatment, cells were obtained by mechanical disaggregation, stained with DiOC6 and PI, and incubated at room temperature for 30 min in the dark. Ten thousand events were analyzed by flow cytometry with excitation at 488 nm and emission detection with green (530/15 nm) and red (610/20 nm) filters.

[6] = tested on: caspase 3, caspase 7, caspase 8 and p53 in SW480 cells; test: Apoptotic biomarkers (ELISA); format: cell-based, human; details: SW480, treated with IC50, 48 h, vs control
Procedure: To provide an approach to the possible molecular mechanisms through which the hybrid compounds induce an effect on the cell lines, different proteins related to the process of death by apoptosis were determined. For this method, 1,000,000 cells were initially seeded per Petri dish, with an adherence period of 24 h at 37 °C in a 5% CO2 atmosphere. […] Later, the consumed medium was discarded, and after the addition of the versene buffer, the cells were obtained by mechanical disaggregation. The cells were then lysed with a cell lysis buffer and centrifuged to obtain the supernatant, which was used to determine the biomarkers of interest by enzyme-linked immunosorbent assays. These ELISA kits were provided by Elabscience Biotechnology Co., Houston, TX, USA [26].

SW480 cells [7] = test: Antiproliferative activity (SRB, 0-8 days); format: cell-based; details: Homo sapiens, read-out: Cell Viability (%) ± SE; for viability at 2.5 µM: SW480, 2.5 µM; for viability at 40 µM: SW480, 40 µM
Procedure: For this experiment, the same colorimetric method (SRB) from the evaluation of cell viability was used, although with some modifications. Initially, 2500 cells per well were seeded in 96-well culture plates, and a 24 h adherence period was performed at 37 °C in a 5% CO2 atmosphere. […] For this assay, incubation periods of 0, 2, 4, 6, and 8 days were used, and the fixation, staining, and reading conditions were the same as those previously described for the cytotoxicity assay.

SW620 cells [8] = tested on: SW620 cells; design: method as in PMID 36297411; details: cited from earlier work

| IC50 (SW480 cells [2]; SW480, 24 h) [µM] | IC50 (SW480 cells [2]; SW480, 48 h) [µM] | IC50 (SW620 cells [3]; SW-620, 24 h, 24 h) [µM] | IC50 (SW620 cells [3]; SW-620, 48 h, 48 h) [µM] | melting point [°C] | Compound | IC50 (CHO-K1 cells; CHO-K1, 24 h) [µM] | IC50 (CHO-K1 cells; CHO-K1, 48 h) [µM] | IC50 (HaCaT cells; 24 h) [µM] | IC50 (HaCaT cells; 48 h) [µM] | further results |
| --- | --- | --- | --- | --- | --- | --- | --- | --- | --- | --- |
| 1540 ± 128 | 174 ± 19.1 | 899 ± 60.7 | 181 ± 18.8 |  | O=c1[nH]cc(F)c(=O)[nH]1 [Compound 5-FU, 5-fluorouracil, reference compound] | 544 ± 52.9 | 173 ± 14.6 | > 1000 | 119 ± 2.84 |  |
| 48.4 ± 2.82 | 17.1 ± 0.8 | 90.2 ± 9.33 | 33.7 ± 1.03 | 124 to 129 | COc1cc(/C=C/C(=O)c2ccc(OCCCn3cc(Cn4cc(F)c(=O)[nH]c4=O)nn3)cc2)ccc1O [Compound 6b, (E)-5-fluoro-1-((1-(3-(4-(3-(4-hydroxy-3-methoxyphenyl)acryloyl)phenoxy)propyl)-1H-1,2,3-triazol-4-yl)methyl)pyrimidine-2,4(1H,3H)-dione] | 51.3 ± 2.86 | 46.5 ± 1.34 | 58.1 ± 3.3 | 18.4 ± 1.1 |  |
| > 100 | 29.7 ± 2.43 | > 100 | > 100 | 98 to 102 | COc1cc(/C=C/C(=O)c2ccc(OCCCCCCCCn3cc(Cn4cc(F)c(=O)[nH]c4=O)nn3)cc2)ccc1O [Compound 6f, (E)-5-fluoro-1-((1-(8-(4-(3-(4-hydroxy-3-methoxyphenyl)acryloyl)phenoxy)octyl)-1H-1,2,3-triazol-4-yl)methyl)pyrimidine-2,4(1H,3H)-dione] | > 100 | > 100 | > 100 | 35.1 ± 4.74 |  |
| > 100 | > 100 | > 100 | > 100 | 113 to 120 | COc1cc(/C=C/C(=O)c2ccc(OCCCCCCCCCn3cc(Cn4cc(F)c(=O)[nH]c4=O)nn3)cc2)ccc1O [Compound 6g, (E)-5-fluoro-1-((1-(9-(4-(3-(4-hydroxy-3-methoxyphenyl)acryloyl)phenoxy)nonyl)-1H-1,2,3-triazol-4-yl)methyl)pyrimidine-2,4(1H,3H)-dione] | > 100 | > 100 | > 100 | > 100 |  |
| > 100 | > 100 | > 100 | > 100 | 129 to 135 | COc1cc(/C=C/C(=O)c2ccc(OCCCCCCCCCCCCn3cc(Cn4cc(F)c(=O)[nH]c4=O)nn3)cc2)ccc1O [Compound 6h, (E)-5-fluoro-1-((1-(12-(4-(3-(4-hydroxy-3-methoxyphenyl)acryloyl)phenoxy)dodecyl)-1H-1,2,3-triazol-4-yl)methyl)pyrimidine-2,4(1H,3H)-dione] | > 100 | > 100 | > 100 | > 100 |  |
| 84.6 ± 6.6 | 90.4 ± 1 | 164 ± 5.88 | 22.2 ± 2.37 |  | COc1cc(/C=C/C(=O)CC(=O)/C=C/c2ccc(O)c(OC)c2)ccc1O [Curcumin, curcumin] | 20.2 ± 2.41 | 36.3 ± 4.17 | > 100 | 28.8 ± 2.33 |  |

Second part, the compound before the results:

| Compound | IC50 (SW480 cells [2]; SW480, 24 h) [µM] | IC50 (SW480 cells [2]; SW480, 48 h) [µM] | IC50 (SW620 cells [3]; SW-620, 24 h, 24 h) [µM] | IC50 (SW620 cells [3]; SW-620, 48 h, 48 h) [µM] | melting point [°C] | IC50 (CHO-K1 cells; CHO-K1, 24 h) [µM] | IC50 (CHO-K1 cells; CHO-K1, 48 h) [µM] | IC50 (HaCaT cells; 24 h) [µM] | IC50 (HaCaT cells; 48 h) [µM] | further results |
| --- | --- | --- | --- | --- | --- | --- | --- | --- | --- | --- |
| CC1(C)CCC(C)(C)c2cc(NC(=O)c3ccc(C(=O)OCn4cc(F)c(=O)[nH]c4=O)cc3)ccc21 [B] |  |  |  |  |  |  |  |  |  | IC50 (K562 cell line): 10.6 µM; IC50 (HL-60 cell line): 9.87 µM; IC50 (U937 cell line): 8.21 µM |
| CC1=C(CCC(=O)OCn2cc(F)c(=O)[nH]c2=O)C(=O)C(C(C)C)=CC1=O [C] |  |  |  |  |  |  |  |  |  | IC50 [1]: 52 µM; IC50 (HCT116 cells): 16 µM |
| COc1cc(/C=C/C(=O)c2ccc(OCCn3cc(Cn4cc(F)c(=O)[nH]c4=O)nn3)cc2)ccc1O [Compound 6a, (E)-5-fluoro-1-((1-(2-(4-(3-(4-hydroxy-3-methoxyphenyl)acryloyl)phenoxy)ethyl)-1H-1,2,3-triazol-4-yl)methyl)pyrimidine-2,4(1H,3H)-dione] | 75.3 ± 4.65 | 17.4 ± 1.16 | > 100 | 45.1 ± 0.98 |  | 82.8 ± 6.43 | 73.7 ± 1.07 | 71.8 ± 4.22 | 27.9 ± 2.53 | Cell cycle distribution, G0/G1 (SW480 cells [4]): 53.6%; Cell cycle distribution, G2/M (SW480 cells [4]): 22.2%; Cell cycle distribution, S Phase (SW480 cells [4]): 24.1%; Cell cycle distribution, Sub G0/G1 (SW480 cells [4]): 0%; Dioc6 High population (live cells with high membrane polarization) (SW480 cells [5]): 84.9%; Dioc6 Low population (cells that lose membrane polarization) (SW480 cells [5]): 0%; PI+ population (membrane damage or dead cells) (SW480 cells [5]): 15%; changes in the mitochondrial membrane potential (SW480 cells [5]): do not induce significant changes; levels of biomarkers (caspase 3, caspase 7, caspase 8, p53) [6]: no significant differences; viability at 2.5 µM (SW480 cells [7]; 48 h, 2 days after plating): 97.9 ± 1.55%; viability at 40 µM (SW480 cells [7]; 48 h, 2 days after plating): 16.2 ± 2.51%; viability at 2.5 µM (SW480 cells [7]; 96 h, 4 days after plating): 81.2 ± 2.8%; viability at 40 µM (SW480 cells [7]; 96 h, 4 days after plating): 8 ± 1.81%; viability at 2.5 µM (SW480 cells [7]; 144 h, 6 days after plating): 59.5 ± 3.45%; viability at 40 µM (SW480 cells [7]; 144 h, 6 days after plating): 2.04 ± 0.35%; viability at 2.5 µM (SW480 cells [7]; 192 h, 8 days after plating): 42.8 ± 1.3%; viability at 40 µM (SW480 cells [7]; 192 h, 8 days after plating): 0% |
| COc1cc(/C=C/C(=O)c2ccc(OCCCCn3cc(Cn4cc(F)c(=O)[nH]c4=O)nn3)cc2)ccc1O [Compound 6c, (E)-5-fluoro-1-((1-(4-(4-(3-(4-hydroxy-3-methoxyphenyl)acryloyl)phenoxy)butyl)-1H-1,2,3-triazol-4-yl)methyl)pyrimidine-2,4(1H,3H)-dione] | 30.4 ± 2.69 | 16.4 ± 0.97 | 83.9 ± 8.08 | 28.1 ± 1.85 | 61 to 65 | 26.3 ± 2.99 | 30.5 ± 2.18 | 45.4 ± 4.18 | 19.1 ± 1.68 |  |
| O=c1[nH]c(=O)n(Cc2cn(CCCCCCCCCOc3cc(O)c4c(=O)c(-c5ccc(O)cc5)coc4c3)nn2)cc1F [F] |  |  |  |  |  |  |  |  |  | IC50 (SW620 cells [8]): 36.8 ± 0.71 µM |
